18 compounds from article PMC9415608, “Design, Synthesis and Biological Investigation of 2-Anilino Triazolopyrimidines as Tubulin Polymerization Inhibitors with Anticancer Activities” (Pharmaceuticals, 2022) can be followed below.

The structures appear in SMILES notation. Like-named read-outs stand apart in the source and are kept apart here.

One data set relates to MDA-MB-231. As to the kind of experiment: In vitro cell growth inhibition, resazurin viability assay. The class given is cell-based, human. The note with it: Homo sapiens, MDA-MB-231; 72 h, resazurin; mean ± SE. How it is done:
(§1) All the cell lines used in this paper were of human origin and purchased from the American Type Culture Collection (ATCC, Manassas, VA, USA). Colon adenocarcinoma (HT-29), non-small cell lung carcinoma (A549), cervix carcinoma (HeLa) and breast adenocarcinoma (MDA-MB-231) cells were grown in RPMI (HT29) or DMEM (A549, HeLa, MDA-MB-231) medium (Gibco, Milano, Italy). Both media were supplemented with 115 units/mL of penicillin G (Gibco, Milano, Italy), 115 μg/mL of streptomycin (Invitrogen, Milano, Italy) and 10% fetal bovine serum (Invitrogen, Milano, Italy). All cell lines were grown at 37 °C in a humidified 5% CO2 atmosphere. The cells were grown in 2 mL of complete medium.
(§2) Stock solutions were prepared for each compound by dissolving in DMSO at the final concentration of 10 mM.
(§3) The cells were seeded in 96-well plates at the appropriate density for each cell line. The respective cell line densities used for the antiproliferative assay were HeLa and HT29 5000 cells/well, A549 4000 cells/well and MDA-MB-231 7000 cells/well. The total volume of medium was 100 µL. After 24 h, the cells were treated by performing serial 5-fold dilutions of the tested compounds starting from a concentration of 10 μM. All experimental conditions were tested in triplicate for statistical analysis. After 72 h of incubation, 10 μL of 100 μg/mL resazurin solution was added to each well and the plate was re-incubated for 3–4 h. The fluorescence of the wells in each plate was monitored using a Spark 10M spectrophotometer (Tecan Group Ltd., Mannedorf, Switzerland) with a 535 nm excitation wavelength and a 600 nm emission wavelength.
In general terms: The colour change of resazurin is a common sign of viable cells or microbes.

Another data set deals with HeLa. The data set is described as above. The class given is cell-based, human. The following applies: for IC50: Homo sapiens, 72 h, resazurin, mean ± SE. How it is done: as §1, §2, §3
The subject of the next data set is HT29. The data set is described as above. It counts as cell-based, human. The following applies: for IC50: Homo sapiens, HT-29, 72 h, resazurin, mean ± SE. How it is done:
as §1, §2, §3

Another data set has as its system A549. Described as above. It counts as cell-based, human. The following applies: Homo sapiens, A549; 72 h, resazurin; mean ± SE. As for the experimental part: as §1, §2, §3
The subject of data set [1] is MDA-MB-231, HeLa, A549 and HT-29 cancer cell lines. In words: Antiproliferative activity stated across the panel of cancer cell lines. The following applies: for IC50: Homo sapiens, read-out: IC50. The class given is cell-based, human. As for the experimental part:
as §1, §2, §3

Setting [2] is: stated for the panel of cancer cell lines as a whole.

By melting point is commonly meant the temperature of the solid-liquid transition. Regarding `COc1cc(-c2ccnc3nc(Nc4ccccc4)nn23)cc(OC)c1OC` [Compound 3a, N-Phenyl-7-(3,4,5-trimethoxyphenyl)-[1,2,4]triazolo[1,5-a]pyrimidin-2-amine], the melting point was in the range of 235 to 236 °C.

What is called IC50 is the concentration at which inhibition is half-maximal. `COc1cc(-c2ccnc3nc(Nc4cccnc4)nn23)cc(OC)c1OC` [Compound 3b, N-(Pyridin-3-yl)-7-(3,4,5-trimethoxyphenyl)-[1,2,4]triazolo[1,5-a]pyrimidin-2-amine] gave a melting point of 172 to 174 °C. In the data set on MDA-MB-231, this compound came in with an IC50 of more than 10 µM. The compound also registered a half-inhibitory concentration (IC50) in the data set with HeLa of more than 10 µM. Besides, the “fold reduction in potency relative to 3a” value with HT29 (HT-29 cells) was determined as 3 fold. The compound further showed an IC50 with HT29 of 3.42 ± 0.41 µM. In the data set with A549, this compound returned an IC50 of more than 10 µM. Moreover, the IC50 in data set [1] (against three of the four cancer cell lines (not HT-29)) is more than 10 µM.

As to `COc1cc(-c2ccnc3nc(Nc4ccc(F)cc4)nn23)cc(OC)c1OC` [Compound 3c, N-(4-Fluorophenyl)-7-(3,4,5-trimethoxyphenyl)-[1,2,4]triazolo[1,5-a]pyrimidin-2-amine], the melting point lay within 234 to 235 °C. The IC50 with MDA-MB-231 was more than 10 µM. This compound displayed a half-maximal inhibitory concentration (IC50) with HeLa of 5.44 ± 1.05 µM. In the data set with HT29, this compound gave an IC50 of more than 10 µM. The IC50 with A549 is more than 10 µM.

As for `COc1cc(-c2ccnc3nc(Nc4cccc(C)c4)nn23)cc(OC)c1OC` [Compound 3e, N-(m-Tolyl)-7-(3,4,5-trimethoxyphenyl)-[1,2,4]triazolo[1,5-a]pyrimidin-2-amine], the melting point lay in the range of 229 to 230 °C. The compound also had a half-inhibitory concentration (IC50) in the data set with MDA-MB-231 of more than 10 µM. The same compound registered a half-maximal inhibitory concentration (IC50) with HeLa of 0.39 ± 0.02 µM. Also, in the data set with HT29, the IC50 was determined as 1.38 ± 0.09 µM. In the data set with A549, this compound had an IC50 of 1.87 ± 0.17 µM. The “fold reduction in antiproliferative activity relative to 3d” value in data set [1] (range over cell lines) is 10–46 fold.

Regarding `COc1cc(-c2ccnc3nc(Nc4cc(C)cc(C)c4)nn23)cc(OC)c1OC` [Compound 3g, N-(3,5-Dimethylphenyl)-7-(3,4,5-trimethoxyphenyl)-[1,2,4]triazolo[1,5-a]pyrimidin-2-amine], the melting point lay within 228 to 230 °C. In the data set on MDA-MB-231, this compound showed an IC50 of more than 10 µM. In addition, in the data set with HeLa, the IC50 was more than 10 µM. Also, in the data set with HT29, the IC50 is more than 10 µM. In the data set on A549, the IC50 was more than 10 µM. In addition, the IC50 in data set [1] (setting [2]) was more than 10 µM.

Turning to `CCCc1ccc(Nc2nc3nccc(-c4cc(OC)c(OC)c(OC)c4)n3n2)cc1` [Compound 3i, N-(4-Propylphenyl)-7-(3,4,5-trimethoxyphenyl)-[1,2,4]triazolo[1,5-a]pyrimidin-2-amine], the melting point is 185 to 187 °C. For the same compound, the IC50 in the data set on MDA-MB-231 was more than 10 µM. Also, the concentration for half-maximal inhibition (IC50) in the data set on HeLa is more than 10 µM. The same compound yielded an IC50 in the data set on HT29 of more than 10 µM. The compound also displayed an IC50 in the data set on A549 of more than 10 µM.

In turn, `COc1cc(-c2ccnc3nc(Nc4ccc(C(C)C)cc4)nn23)cc(OC)c1OC` [Compound 3j, N-(4-Isopropylphenyl)-7-(3,4,5-trimethoxyphenyl)-[1,2,4]triazolo[1,5-a]pyrimidin-2-amine] showed a melting point of 212 to 214 °C. In the data set on MDA-MB-231, this compound displayed an IC50 of more than 10 µM. Moreover, in the data set with HeLa, the IC50 was 4.7 ± 0.59 µM. Further, the IC50 in the data set with HT29 is more than 10 µM. This compound also came in with an IC50 with A549 of more than 10 µM.

Take `COc1ccc(Nc2nc3nccc(-c4cc(OC)c(OC)c(OC)c4)n3n2)cc1` [Compound 3k, N-(4-Methoxyphenyl)-7-(3,4,5-trimethoxyphenyl)-[1,2,4]triazolo[1,5-a]pyrimidin-2-amine]: the melting point lay within 213 to 215 °C.

Regarding `CCOc1ccc(Nc2nc3nccc(-c4cc(OC)c(OC)c(OC)c4)n3n2)cc1` [Compound 3m, N-(4-Ethoxyphenyl)-7-(3,4,5-trimethoxyphenyl)-[1,2,4]triazolo[1,5-a]pyrimidin-2-amine], the melting point was in the range of 205 to 207 °C. In addition, the half-maximal inhibitory concentration (IC50) in the data set on MDA-MB-231 is more than 10 µM. In addition, the IC50 in the data set on HeLa is more than 10 µM. The IC50 in the data set with HT29 worked out at 6.16 ± 0.97 µM. Further, in the data set with A549, the IC50 is more than 10 µM. Moreover, the IC50 in data set [1] (setting [2]) was more than 10 µM.

In the case of `COc1cc(-c2ccnc3nc(Nc4ccc5c(c4)OCO5)nn23)cc(OC)c1OC` [Compound 3n, N-(Benzo[d][1,3]dioxol-5-yl)-7-(3,4,5-trimethoxyphenyl)-[1,2,4]triazolo[1,5-a]pyrimidin-2-amine], the melting point is 234 to 236 °C. The same compound registered an IC50 in the data set on MDA-MB-231 of 6.1 ± 1.72 µM. In addition, the IC50 with HT29 came out at 1.39 ± 0.06 µM. Further, in the data set with A549, the IC50 came out at 1.44 ± 0.26 µM. For the same compound, in data set [1] (three of the four cancer cell lines), the “fold increase in antiproliferative activity relative to 3k” value was 1.5- to 4 fold.

`COc1cc(-c2ccnc3nc(Nc4ccc5c(c4)OCCO5)nn23)cc(OC)c1OC` [Compound 3o, N-(2,3-Dihydrobenzo[b][1,4]dioxin-6-yl)-7-(3,4,5-trimethoxyphenyl)-[1,2,4]triazolo[1,5-a]pyrimidin-2-amine] registered a melting point of 212 to 214 °C. For the same compound, in the data set on MDA-MB-231, the IC50 was more than 10 µM. Moreover, in the data set on HeLa (HeLa cells), the “fold more active than 3n” value turned out to be 3 fold. The compound also gave an IC50 in the data set with HeLa of 0.29 ± 0.031 µM. The “fold more active than 3n” value in the data set with HT29 (HT-29 cells) stood at 2 fold. The compound further came in with an IC50 with HT29 of 0.67 ± 0.12 µM. In the data set on A549, this compound yielded an IC50 of 2.42 ± 0.12 µM.

With `COc1cc(-c2ccnc3nc(NCc4ccccc4)nn23)cc(OC)c1OC` [Compound 3p, N-Benzyl-7-(3,4,5-trimethoxyphenyl)-[1,2,4]triazolo[1,5-a]pyrimidin-2-amine], the melting point lay in the range of 144 to 146 °C. Besides, 9.3 ± 0.22 µM corresponded to half-maximal inhibition in the data set on MDA-MB-231 (IC50). The compound also displayed an IC50 with HeLa of more than 10 µM. Also, the half-inhibitory concentration (IC50) in the data set on HT29 is more than 10 µM. In the data set with A549, this compound yielded an IC50 of more than 10 µM. Besides, the IC50 in data set [1] (setting [2]) is more than 10 µM.

`COc1cc(-c2ccnc3nc(NCc4ccc(Cl)cc4)nn23)cc(OC)c1OC` [Compound 3q, N-(4-Chlorobenzyl)-7-(3,4,5-trimethoxyphenyl)-[1,2,4]triazolo[1,5-a]pyrimidin-2-amine] gave a melting point of 171 to 173 °C. In addition, the IC50 in the data set on MDA-MB-231 was more than 10 µM. In the data set with HeLa, the IC50 is more than 10 µM. For the same compound, in the data set on HT29, the IC50 is more than 10 µM. This compound also yielded an IC50 in the data set with A549 of more than 10 µM.

`COc1cc(-c2ccnc3nc(NCc4ccc(C)cc4)nn23)cc(OC)c1OC` [Compound 3r, N-(4-Methylbenzyl)-7-(3,4,5-trimethoxyphenyl)-[1,2,4]triazolo[1,5-a]pyrimidin-2-amine] showed a melting point of 156 to 158 °C. Further, the IC50 in the data set on MDA-MB-231 is more than 10 µM. In addition, the IC50 in the data set with HeLa was more than 10 µM. Moreover, the IC50 with HT29 is more than 10 µM. The IC50 with A549 was more than 10 µM. Further, in data set [1] (setting [2]), the IC50 is more than 10 µM.

The compound `COc1ccc(CNc2nc3nccc(-c4cc(OC)c(OC)c(OC)c4)n3n2)cc1` [Compound 3s, N-(4-Methoxybenzyl)-7-(3,4,5-trimethoxyphenyl)-[1,2,4]triazolo[1,5-a]pyrimidin-2-amine] registered a melting point of 190 to 192 °C. In addition, in the data set with MDA-MB-231, the IC50 was more than 10 µM. The compound also came in with an IC50 in the data set with HeLa of more than 10 µM. In addition, the IC50 with HT29 was more than 10 µM. The compound further registered an IC50 in the data set on A549 of more than 10 µM. Besides, the IC50 in data set [1] (setting [2]) is more than 10 µM.

For `COc1cc(-c2ccnc3nc(NCc4ccc5c(c4)OCO5)nn23)cc(OC)c1OC` [Compound 3t, N-(Benzo[d][1,3]dioxol-5-ylmethyl)-7-(3,4,5-trimethoxyphenyl)-[1,2,4]triazolo[1,5-a]pyrimidin-2-amine], the melting point lay in the range of 233 to 235 °C. The same compound registered an IC50 with MDA-MB-231 of more than 10 µM. Further, in the data set on HeLa, the IC50 is more than 10 µM. Besides, in the data set with HT29, the IC50 is more than 10 µM. This compound also returned an IC50 in the data set on A549 of more than 10 µM. In addition, in data set [1] (setting [2]), the IC50 is more than 10 µM.

With `COc1cc(-c2ccnc3nc(NCCc4ccccc4)nn23)cc(OC)c1OC` [Compound 3u, N-Phenethyl-7-(3,4,5-trimethoxyphenyl)-[1,2,4]triazolo[1,5-a]pyrimidin-2-amine], the melting point fell in the range of 138 to 139 °C. Besides, half-maximal inhibition in the data set on MDA-MB-231 (IC50) required 8.7 ± 1.1 µM. Also, the IC50 in the data set with HeLa was more than 10 µM. The compound further had an IC50 with HT29 of 6.74 ± 0.5 µM. Further, the IC50 in the data set on A549 is more than 10 µM. In addition, in data set [1] (setting [2]), the IC50 was more than 10 µM.

In the case of `COc1cc(-c2ccnc3nc(NCCCc4ccccc4)nn23)cc(OC)c1OC` [Compound 3v, N-(3-Phenylpropyl)-7-(3,4,5-trimethoxyphenyl)-[1,2,4]triazolo[1,5-a]pyrimidin-2-amine], the melting point lay in the range of 98 to 100 °C. In addition, in the data set on MDA-MB-231, the IC50 was more than 10 µM. In the data set on HeLa, this compound gave an IC50 of more than 10 µM. Besides, the IC50 in the data set with HT29 was more than 10 µM. Also, the IC50 with A549 was more than 10 µM. Moreover, the IC50 in data set [1] (setting [2]) is more than 10 µM.
